Assays:
[1] = system: PC12 cells; experiment: MTT assay, β-amyloid 25-35 toxicity in PC12 cells; assay type: cell-based, rat; conditions: 5 μM β-amyloid 25-35, 6 hours; 10 μM-1 nM
Excerpt: The 3-(4,5-dimethylthiazol-2-yl)-2,5-diphenyl-tetrazolium bromide (MTT) assay measures changes that occur within the cells, involving mitochondria activation, indicative of a process that eventually leads to cell death (Fagarasan et al., Mol. Psychiat. 1996, 1:398-403). This assay is a specific, early indicator of the mechanism of β-amyloid-mediated cell death (Shearman et al., PNAS USA 1994, 91:1470-74). This assay was used to evaluate compounds of formulae I and II. Rat pheochromocytoma (PC12) cells were plated in 96 well plate at a density of 10,000 cells/well, and maintained in Dulbecco's modified Eagle medium (Gibco, Cat. 21969) supplemented with 5% fetal bovine serum (Biological Industries, Cat. 04-121-1A), 10% heat-inactivated horse serum (Gibco Cat. 26050), L-Glutamine 200 mM (Biological Industries, Cat. 03-020-1C), Penicillin 10000 U/ml (Biological Industries, Cat 03-031-1C), and Amphotericin B 50 mg/ml (Biological Industries, Cat. 01-029-1C). The next day the medium was refreshed with serum free media and cells were treated with 5 μM β-amyloid 25-35 (H-1192.0001, Bachem) in the presence or absence of the test compound. Compounds were tested for 6 hours, respectively, at final concentrations ranging between 0.1 nM to 100 μM. 3-Indolepropionic acid (3-IPA, Cat. 220027, Sigma Aldrich) served as a reference antioxidant.

[2] = target: T1, M1 mAChR (Homo sapiens, UniProt P11229); experiment: αAPPs secretion in CHO cells double transfected with human APP695 and human M1 mAChR; assay type: cell-based
T1 sequence (P11229 1-460): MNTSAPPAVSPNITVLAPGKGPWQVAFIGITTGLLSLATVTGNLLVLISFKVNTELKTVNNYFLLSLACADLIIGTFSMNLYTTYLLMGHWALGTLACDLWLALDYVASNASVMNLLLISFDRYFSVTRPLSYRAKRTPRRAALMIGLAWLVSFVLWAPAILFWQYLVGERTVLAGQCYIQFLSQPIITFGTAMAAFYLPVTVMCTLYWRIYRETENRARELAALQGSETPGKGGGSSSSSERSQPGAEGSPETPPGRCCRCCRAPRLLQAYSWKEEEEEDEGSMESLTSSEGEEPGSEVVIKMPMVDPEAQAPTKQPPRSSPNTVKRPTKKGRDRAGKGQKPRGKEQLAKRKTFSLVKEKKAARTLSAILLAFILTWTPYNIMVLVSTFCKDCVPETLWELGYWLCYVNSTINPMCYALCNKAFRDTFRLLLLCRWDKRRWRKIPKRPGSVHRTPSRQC
Protocol: (§1) α-APPs Secretion studies following incubation with the tested compounds were performed as described in Haring, et al. J. Neurochem., 1998, 71:2094-103. […] A day later, cells were washed twice with serum free media, and treated with the test compound at various concentrations ranging from 0.1 nM to 100 μM. […] After 1 hour the conditioned medium was collected to cold Eppendorf tubes, which included a protease inhibitor cocktail (0.1 mM phenylmethylsulphonyl fluoride (PMSF); 5 μg/ml leupeptin; 5 μg/ml pepstatin and 5 units/ml aprotinin) for determining αAPPs release. The protein content of each sample was concentrated using Centricon tubes (Amicon, Beverly, Mass.). […] CHO cells double transfected with human APP695 and M1 mAChR APPs bands were probed using anti-amyloid beta protein (1:1000, monoclonal 6E10 antibody, MAB1560, Chemicon) and peroxidase-linked rabbit anti mouse IgG (1:5,000; Jackson Immuno Research, PA). PC12 cells stably transfected with M1 mAChR APPs bands were probed using the anti-Alzheimer precursor protein A4 (1:4,000; monoclonal 22C11 antibody, Boehringer Mannheim) and the peroxidase-linked rabbit anti mouse IgG (1:20,000; Jackson Immuno Research, PA). Following extensive washout, the membranes were treated with Western Lightning Chemiluminescence Reagent Plus (PerkinElmer Life Sciences, MA) followed by exposure to SuperRX film (Fuji Medical X-ray film, Tokyo, Japan). Quantitative determination of the total APPs bands was performed by Scion Image program (NIH, Bethesda, USA). Samples of control and CCh were assayed in parallel and thus enabled compilation of data from separate experiments.

[3] = target: T2, rat M1 mAChR (Rattus norvegicus, UniProt P08482); experiment: αAPPs secretion in PC12 cells stably transfected with rat M1 mAChR; assay type: cell-based; conditions: 0.1 nM to 1 μM, not observed in untransfected PC12
T2 construct: expressed in transfected cells; host or cells: rat pheochromocytoma PC12 cells
Protocol: as §1, with “Following extensive washout, the membranes were treated with Western Lightning Chemiluminescence Reagent Plus (PerkinElmer Life Sciences, MA) followed by exposure to SuperRX film (Fuji Medical X-ray film, Tokyo, Japan).” left out, “Samples of control and CCh were assayed in parallel and thus enabled compilation of data from separate experiments.” left out

[4] = target: T1, M1 mAChR
[5] = target: T1, M1 mAChR; experiment: Intracellular Ca2+ mobilization (Fluo-4 NW) in cells stably transfected with M1 mAChR; assay type: cell-based; parameters: expressed in transfected cells; conditions: 100 μM; mobilization of intracellular Ca ions
Excerpt: On the day of experiment, cells were fully confluent.
To evaluate selectivity for a subtype of mAChR, in particular the M1 mAChR vs. M3 and MS mAChR, the assays were calibrated using ligands that have a combined activity, e.g. M1 agonistic and M3 antagonistic or M1 agonistic and MS antagonistic profiles, respectively. This can eliminate effects due to different receptor reserves in cell-based assays.

T2 sequence (P08482 whole entry): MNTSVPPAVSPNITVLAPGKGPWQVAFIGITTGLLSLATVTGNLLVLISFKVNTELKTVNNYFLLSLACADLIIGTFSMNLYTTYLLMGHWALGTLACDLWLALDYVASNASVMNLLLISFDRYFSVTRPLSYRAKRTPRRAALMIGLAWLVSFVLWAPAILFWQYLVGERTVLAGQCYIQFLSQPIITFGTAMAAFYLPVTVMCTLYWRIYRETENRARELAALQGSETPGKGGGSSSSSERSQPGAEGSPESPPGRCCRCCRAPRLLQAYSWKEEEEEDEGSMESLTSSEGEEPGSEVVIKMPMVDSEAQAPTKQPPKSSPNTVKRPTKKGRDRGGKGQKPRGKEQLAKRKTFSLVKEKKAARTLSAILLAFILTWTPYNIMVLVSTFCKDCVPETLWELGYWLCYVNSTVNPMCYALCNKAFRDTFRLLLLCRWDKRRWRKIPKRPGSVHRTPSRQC

Compound	protection against toxicity induced by Aβ25-35 (MTT) [1]	release of αAPPs ([2]; CHO cells, 0.1 nM to 1 μM)	maximal αAPPs secretion in comparison to untreated control cells ([2]; doubly-transfected CHO cells, AF710B at 0.01 μM, AF710 at 0.1 μM, AF710A at 1 μM)	release of αAPPs [3]	effect of brucine pre-incubation on elevation of intracellular calcium ions [4]	M1 agonist at 100 μM vs. carbachol (full muscarinic agonist, 100%) [5]
O=C(O)CCc1c[nH]c2ccccc12 [3-IPA, 3-Indolepropionic acid, reference compound]	protected cells	–	–	–	–	–
CC1SC2(CCN(C)CC2)CN1C(=O)CCc1c[nH]c2ccccc12 (racemic) [AF710, 1-(2,8-dimethyl-1-thia-3,8-diazaspiro[4.5]dec-3-yl)-3-(1H-indol-3-yl) propan-1-one]	protected cells	enhanced the release of αAPPs	175%	enhanced the release of αAPPs	no such effect	40%
CC1OC2(CCN(C)CC2)CN1C(=O)CCc1c[nH]c2ccccc12 (racemic) [AF711, 1-(2,8-dimethyl-1-oxa-3,8-diazaspiro[4.5]dec-3-yl)-3-(1H-indol-3-yl)-propan-1-one]	protected cells	–	–	–	–	19%

Source: US9034891B2, “Bicyclic heterocyclic spiro compounds” (ISRAEL INSTITUTE FOR BIOLOGICAL RESEARCH, priority 2009, dated 2015)
